# Data taken from patent US20240415819A1, “MACROCYCLIC COMPOUNDS AS PROTEASOME SUBUNIT BETA TYPE-5 INHIBITORS” (Lead Discovery Center GmbH, priority 2021, published 2024).
# Columns and labels:
# [1] = target: T1, β5 subunit of the human constitutive proteasome (CPS) (Homo sapiens, UniProt P28074); assay: β5 inhibition assay, human constitutive proteasome (Suc-LLVY-AMC); type: biochemical; settings: IC50 class, Suc-LLVY-AMC substrate
# T1 construct: purchased Boston Biochem E-360
# Protocol: The enzymatic activity of the β5 subunit of the human constitutive proteasome (CPS) is analyzed. In another assay, which differs from the assay of the human constitutive proteasome only in using the human immunoproteasome (IPS) the enzymatic activity of the β5 subunit of the human immunoproteasome (IPS) is analyzed. […] Inhibition is indicated as IC50 [nM] (“-”=not measured).
# [2] = test system: RPMI 8226 (B lymphocyte cell line, multiple myeloma); assay: 48 hr CTG viability assay, RPMI 8226; type: cell-based; settings: Homo sapiens, RPMI-8226; 48 hr CTG; read-out: RPMI-8226 IC50
# Outline: (§1)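 Growth inhibition by compound over 48 h; IC50 (nM) derived from duplicate CellTiter-Glo luminescence readings across 0.0015–10 uM.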
# [3] = test system: MM1 S (B lymphoblast cell line); assay: 48 hr CTG viability assay, MM1S; type: cell-based; settings: Homo sapiens, 48 hr CTG, read-out: MM1S IC50
# Outline: as §1
# [4] = test system: A549 (human lung carcinoma cell line); assay: Glo assay of A549 cells (Table 3; ProteasomeGlo plating scheme); type: cell-based; settings: Homo sapiens; A549 cells; read-out: PGLo A549
# Outline: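 IC50 values (nM) come from a cell-based chymotrypsin-like Proteasome-Glo luminescence assay. Compound exposure ran 105 min at 37° C.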
# [5] = test system: Hs 746T (human gastric carcinoma cell line); assay: 48 hr CTG viability assay, Hs 746T; type: cell-based; settings: Hs746T, 48 hr CTG, read-out: Hs 746T IC50
# Outline: as §1
# [6] = target: T2, β5 subunit of the human immunoproteasome (IPS) (Homo sapiens, UniProt P28062); assay: β5 inhibition assay, human immunoproteasome (Suc-LLVY-AMC); type: biochemical; settings: IC50 class, Suc-LLVY-AMC substrate
# T2 construct: purchased Boston Biochem E-370
# Outline: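 Human immunoproteasome (1 nM final) was preincubated 10 min at RT with compound in 100 mM HEPES pH 7.5, 50 mM NaCl, 0.02% SDS, 1 mM DTT. Suc-LLVY-AMC (22.6 μM final) was then added for 4 h at RT in the dark. After stopping with 1 μM bortezomib, AMC fluorescence was read (ex 355/em 460 nm).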
IC50 [1],IC50 [2],IC50 [3],IC50 [4],IC50 [5],IC50 [6],Compound
< 100 nM,< 100 nM,< 100 nM,< 100 nM,< 100 nM,< 100 nM,"Cc1ccc2cc1CNC(=O)[C@H](CCc1ccccc1)NC(=O)[C@@H](NC(=O)CCNCC1CCC1)CC(=O)N1CCCC(CCO2)C1 (stereo partly drawn) [Compound 674, 3-((cyclobutylmethyl)amino)-N-((9S,12S)-5^4-methyl-8,11,14-trioxo-9-phenethyl-4-oxa-7,10-diaza-1(3,1)-piperidina-5(1,3)-benzenacyclotetradecaphane-12-yl)propanamide]"
< 100 nM,< 100 nM,< 100 nM,< 100 nM,< 100 nM,< 100 nM,"Cc1ccc2cc1CNC(=O)[C@H](CCc1ccccc1)NC(=O)[C@@H](NC(=O)N1CCc3cnccc31)CC(=O)N1CCCC(CCO2)C1 (stereo partly drawn) [Compound 703, N-((9S,12S)-5^4-methyl-8,11,14-trioxo-9-phenethyl-4-oxa-7,10-diaza-1(3,1)-piperidina-5(1,3)-benzenacyclotetradecaphane-12-yl)-2,3-dihydro-1H-pyrrolo[3,2-c]pyridine-1-carboxamide]"
< 100 nM,100 to 500 nM,500 to 1000 nM,100 to 500 nM,1000 to 5000 nM,< 100 nM,"Cc1ccc2cc1CNC(=O)[C@H](CCc1ccccc1)NC(=O)[C@@H](NCC(C)(C)N)CC(=O)N1CCCC(CCO2)C1 (stereo partly drawn) [Compound 727, (9S,12S)-12-((2-amino-2-methylpropyl)amino)-5^4-methyl-9-phenethyl-4-oxa-7,10-diaza-1(3,1)-piperidina-5(1,3)-benzenacyclotetradecaphane-8,11,14-trione]"
< 100 nM,< 100 nM,< 100 nM,< 100 nM,100 to 500 nM,< 100 nM,"Cc1ccc2cc1CNC(=O)[C@H](CCN1C[C@@H]3C[C@H]1CO3)NC(=O)[C@@H](NC(=O)Cc1cn3ccsc3n1)CC(=O)N1CCCC(CCO2)C1 [Compound 739, N-((9S,12S)-9-(2-((1S,4S)-2-oxa-5-azabicyclo[2.2.1]heptan-5-yl)ethyl)-5^4-methyl-8,11,14-trioxo-4-oxa-7,10-diaza-1(3,1)-piperidina-5(1,3)-benzenacyclotetradecaphane-12-yl)-2-(imidazo[2,1-b]thiazol-6-yl)acetamide]"
< 100 nM,< 100 nM,< 100 nM,< 100 nM,< 100 nM,< 100 nM,"CCN1CCN(C(=O)N[C@H]2CC(=O)N3CCCC(CCOc4ccc(C)c(c4)CNC(=O)[C@H](CCc4ccccc4)NC2=O)C3)CC1 (stereo partly drawn) [Compound 688, 4-ethyl-N-((9S,12S)-5^4-methyl-8,11,14-trioxo-9-phenethyl-4-oxa-7,10-diaza-1(3,1)-piperidina-5(1,3)-benzenacyclotetradecaphane-12-yl)piperazine-1-carboxamide]"
< 100 nM,< 100 nM,< 100 nM,< 100 nM,< 100 nM,< 100 nM,"Cc1ccc2cc1CNC(=O)[C@H](CCc1ccccc1)NC(=O)[C@@H](NC(=O)CCNC1CCC1)CC(=O)N1CCCC(CCO2)C1 (stereo partly drawn) [Compound 680, 3-(cyclobutylamino)-N-((9S,12S)-5^4-methyl-8,11,14-trioxo-9-phenethyl-4-oxa-7,10-diaza-1(3,1)-piperidina-5(1,3)-benzenacyclotetradecaphane-12-yl)propanamide]"
< 100 nM,< 100 nM,< 100 nM,< 100 nM,< 100 nM,< 100 nM,"Cc1ccc2cc1CNC(=O)[C@H](CCc1ccccc1)NC(=O)[C@@H](NC(=O)C13CC(N)(C1)C3)CC(=O)N1CCCC(CCO2)C1 (stereo partly drawn) [Compound 662, 3-amino-N-((9S,12S)-5^4-methyl-8,11,14-trioxo-9-phenethyl-4-oxa-7,10-diaza-1(3,1)-piperidina-5(1,3)-benzenacyclotetradecaphane-12-yl)bicyclo[1.1.1]pentane-1-carboxamide]"
< 100 nM,< 100 nM,< 100 nM,< 100 nM,< 100 nM,< 100 nM,"Cc1ccc2cc1CNC(=O)[C@H](CCC(C)C)NC(=O)[C@@H](NC(=O)Cc1cn3ccsc3n1)CC(=O)N1CCCC(CCO2)C1 (stereo partly drawn) [Compound 583, 2-(imidazo[2,1-b]thiazol-6-yl)-N-((9S,12S)-9-isopentyl-5^4-methyl-8,11,14-trioxo-4-oxa-7,10-diaza-1(3,1)-piperidina-5(1,3)-benzenacyclotetradecaphane-12-yl)acetamide]"
< 100 nM,< 100 nM,< 100 nM,< 100 nM,< 100 nM,< 100 nM,"Cc1ccc2cc1CNC(=O)[C@H](CCc1ccccc1)NC(=O)[C@@H](NC(=O)N1CCC(O)CC1)CC(=O)N1CCCC(CCO2)C1 (stereo partly drawn) [Compound 681, 4-hydroxy-N-((9S,12S)-5^4-methyl-8,11,14-trioxo-9-phenethyl-4-oxa-7,10-diaza-1(3,1)-piperidina-5(1,3)-benzenacyclotetradecaphane-12-yl)piperidine-1-carboxamide]"
< 100 nM,100 to 500 nM,100 to 500 nM,< 100 nM,500 to 1000 nM,< 100 nM,"Cc1ccc2cc1CNC(=O)[C@H](CCc1ccccc1)NC(=O)[C@@H](NC(=O)[C@@H](N)CCC(=O)O)CC(=O)N1CCCC(CCO2)C1 (stereo partly drawn) [Compound 724, (4S)-4-amino-5-(((9S,12S)-5^4-methyl-8,11,14-trioxo-9-phenethyl-4-oxa-7,10-diaza-1(3,1)-piperidina-5(1,3)-benzenacyclotetradecaphane-12-yl)amino)-5-oxopentanoic acid]"
< 100 nM,< 100 nM,< 100 nM,< 100 nM,< 100 nM,< 100 nM,"Cc1ccc2cc1CNC(=O)[C@H](CCc1ccccc1)NC(=O)[C@@H](NC(=O)CCNC(=O)C1CC3(CCC3)C1)CC(=O)N1CCCC(CCO2)C1 (stereo partly drawn) [Compound 616, N-(3-(((9S,12S)-5^4-methyl-8,11,14-trioxo-9-phenethyl-4-oxa-7,10-diaza-1(3,1)-piperidina-5(1,3)-benzenacyclotetradecaphane-12-yl)amino)-3-oxopropyl)spiro[3.3]heptane-2-carboxamide]"
< 100 nM,< 100 nM,< 100 nM,< 100 nM,< 100 nM,< 100 nM,"CC(=O)c1ccc(CC(=O)N[C@H]2CCC(=O)NCCCCOc3ccc(C)c(c3)CNC(=O)[C@H](CCc3ccccc3)NC2=O)cc1 [Compound 707, 2-(4-acetylphenyl)-N-((11S,14S)-1^4-methyl-8,12,15-trioxo-1^4-phenethyl-2-oxa-7,13,16-triaza-1(1,3)-benzenacycloheptadecaphane-11-yl)acetamide]"
< 100 nM,< 100 nM,< 100 nM,< 100 nM,< 100 nM,< 100 nM,"COc1cccc(OCCC(=O)N[C@H]2CC(=O)N3CCCC(CCOc4ccc(C)c(c4)CNC(=O)[C@H](CCc4ccccc4)NC2=O)C3)c1 (stereo partly drawn) [Compound 587, 3-(3-methoxyphenoxy)-N-((9S,12S)-5^4-methyl-8,11,14-trioxo-9-phenethyl-4-oxa-7,10-diaza-1(3,1)-piperidina-5(1,3)-benzenacyclotetradecaphane-12-yl)propanamid]"
< 100 nM,< 100 nM,< 100 nM,< 100 nM,< 100 nM,< 100 nM,"Cc1ccc2cc1CNC(=O)[C@H](CCc1ccncc1)NC(=O)[C@@H](NC(=O)Cc1ccc(N)cc1C)CC(=O)N1CCCC(CCO2)C1 (stereo partly drawn) [Compound 654, 2-(4-amino-2-methylphenyl)-N-((9S,12S)-5^4-methyl-8,11,14-trioxo-9-(2-(pyridin-4-yl)ethyl)-4-oxa-7,10-diaza-1(3,1)-piperidina-5(1,3)-benzenacyclotetradecaphane-12-yl)acetamide]"
< 100 nM,100 to 500 nM,100 to 500 nM,100 to 500 nM,500 to 1000 nM,< 100 nM,"Cc1ccc2cc1CNC(=O)[C@H](CCc1ccccc1)NC(=O)[C@@H](NC(=O)C(C)(C)CO)CCC(=O)NCCCCO2 [Compound 726, 3-hydroxy-2,2-dimethyl-N-((11S,14S)-1^4_ methyl-8,12,15-trioxo-1^4-phenethyl-2-oxa-7,13,16-triaza-1(1,3)-benzenacycloheptadecaphane-11-yl)propanamide]"
